Drawing on PMC9105384, “Ethyl Gallate Dual-Targeting PTPN6 and PPARγ Shows Anti-Diabetic and Anti-Obese Effects” (International Journal of Molecular Sciences, 2022), this text covers Km, Ki and inhibition for six compounds.

Assay [1] addresses T1, PTPN1 (Homo sapiens, UniProt P18031).
T1 sequence (P18031 1-435): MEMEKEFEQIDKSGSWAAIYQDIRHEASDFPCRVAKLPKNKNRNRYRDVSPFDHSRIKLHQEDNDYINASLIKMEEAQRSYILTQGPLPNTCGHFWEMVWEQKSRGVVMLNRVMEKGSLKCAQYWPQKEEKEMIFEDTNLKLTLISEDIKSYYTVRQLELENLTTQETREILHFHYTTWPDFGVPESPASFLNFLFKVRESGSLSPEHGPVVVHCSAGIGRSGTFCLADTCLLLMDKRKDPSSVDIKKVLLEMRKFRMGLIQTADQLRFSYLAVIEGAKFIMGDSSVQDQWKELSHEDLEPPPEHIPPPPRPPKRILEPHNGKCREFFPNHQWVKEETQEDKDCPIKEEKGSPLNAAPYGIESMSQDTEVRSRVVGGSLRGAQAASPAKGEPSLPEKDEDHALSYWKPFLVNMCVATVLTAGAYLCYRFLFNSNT
On the set-up: DiFMUP hydrolysis by purified PTPs, fluorescence Ex355/Em460, initial rates over 10 min; Michaelis-Menten and Lineweaver-Burk Km. Particulars: optimized pH for each PTP; substrate. The method, then:
(§1) The enzymatic activity of each PTP was evaluated using 6,8-difluoro-4-methylumbelliferyl phosphate (DiFMUP) as the surrogate substrate. To reach within the range of the initial rate (v0) during the measurement for 10 min, the pH and concentration of each PTP were optimized and are listed in Table S3. To determine the Km values, each PTP with optimized concentration was added to the reaction buffer (20 mM Bis-Tris at pH 6.0 or Tris at pH 7.0 and 8.0, 150 mM NaCl, 2.5 mM dithiothreitol (DTT), 0.01% Triton X-100) containing various concentrations of DiFMUP to obtain a final volume of 100 μL in a 96-well plate. Fluorescence intensities were measured once every minute for a complete 10 min duration using a Victor™ X4 Multilabel Plate Reader (Perkin Elmer, Waltham, MA, USA) at excitation/emission = 355 nm/460 nm. The initial rates of the reaction were determined using a previously described procedure for calculating the amount of product formation. To screen a library of 1033 natural products (Chengdu Biopurify Phytochemicals Ltd., Chengdu, China) against 20 PTPs, each PTP with an optimized concentration was added to the reaction buffer with an optimized pH containing DiFMUP (2 × Km for each PTP) after adding each compound (20 μM). […] The Hill coefficient (nH), the degree of cooperativity, was calculated according to a previously published method. […]

Assay [2] concerns the target T2, PTPRJ (Homo sapiens, UniProt Q12913).
T2 sequence (Q12913 1-1337): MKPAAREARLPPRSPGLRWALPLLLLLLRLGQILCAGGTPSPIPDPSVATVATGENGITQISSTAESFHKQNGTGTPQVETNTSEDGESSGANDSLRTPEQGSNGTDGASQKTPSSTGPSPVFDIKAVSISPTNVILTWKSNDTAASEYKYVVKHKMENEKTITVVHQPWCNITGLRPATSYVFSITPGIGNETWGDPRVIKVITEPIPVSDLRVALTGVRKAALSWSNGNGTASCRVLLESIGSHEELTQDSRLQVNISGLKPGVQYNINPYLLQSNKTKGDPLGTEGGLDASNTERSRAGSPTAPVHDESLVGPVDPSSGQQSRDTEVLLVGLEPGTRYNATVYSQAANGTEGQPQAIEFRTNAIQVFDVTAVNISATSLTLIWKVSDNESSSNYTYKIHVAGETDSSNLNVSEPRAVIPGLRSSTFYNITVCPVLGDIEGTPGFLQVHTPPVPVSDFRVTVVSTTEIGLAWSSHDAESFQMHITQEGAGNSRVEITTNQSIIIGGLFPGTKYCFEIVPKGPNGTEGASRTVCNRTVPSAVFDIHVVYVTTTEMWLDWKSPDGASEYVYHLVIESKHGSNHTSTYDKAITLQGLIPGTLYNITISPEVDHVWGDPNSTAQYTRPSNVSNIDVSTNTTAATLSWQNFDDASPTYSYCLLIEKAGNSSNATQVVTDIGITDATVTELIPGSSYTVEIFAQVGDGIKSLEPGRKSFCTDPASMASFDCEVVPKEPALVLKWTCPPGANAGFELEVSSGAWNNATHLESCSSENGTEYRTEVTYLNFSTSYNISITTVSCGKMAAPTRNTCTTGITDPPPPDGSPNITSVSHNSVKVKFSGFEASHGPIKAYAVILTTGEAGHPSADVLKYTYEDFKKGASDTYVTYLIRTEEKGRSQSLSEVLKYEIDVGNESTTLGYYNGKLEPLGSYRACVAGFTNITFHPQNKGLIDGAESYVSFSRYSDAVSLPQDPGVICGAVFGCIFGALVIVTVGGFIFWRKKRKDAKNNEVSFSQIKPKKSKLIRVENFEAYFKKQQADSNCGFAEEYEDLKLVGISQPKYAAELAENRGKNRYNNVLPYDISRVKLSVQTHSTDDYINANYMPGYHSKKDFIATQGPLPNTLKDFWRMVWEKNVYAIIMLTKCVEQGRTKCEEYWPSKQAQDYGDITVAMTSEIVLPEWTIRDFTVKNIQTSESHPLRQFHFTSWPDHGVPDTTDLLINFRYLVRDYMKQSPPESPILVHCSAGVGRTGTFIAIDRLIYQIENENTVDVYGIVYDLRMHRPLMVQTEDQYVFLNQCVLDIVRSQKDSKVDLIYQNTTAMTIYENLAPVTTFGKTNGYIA
On the set-up: DiFMUP hydrolysis by purified PTPs, fluorescence Ex355/Em460, initial rates over 10 min; Michaelis-Menten and Lineweaver-Burk Km. Particulars: optimized pH for each PTP; substrate. As to the method: as §1

The target of assay [3] is T3, PTPN6 (Homo sapiens, UniProt P29350). Description: DiFMUP fluorescence phosphatase assay; Dixon and Lineweaver-Burk plots (IC50 […]). The class given is biochemical.
T3 sequence (P29350 whole entry): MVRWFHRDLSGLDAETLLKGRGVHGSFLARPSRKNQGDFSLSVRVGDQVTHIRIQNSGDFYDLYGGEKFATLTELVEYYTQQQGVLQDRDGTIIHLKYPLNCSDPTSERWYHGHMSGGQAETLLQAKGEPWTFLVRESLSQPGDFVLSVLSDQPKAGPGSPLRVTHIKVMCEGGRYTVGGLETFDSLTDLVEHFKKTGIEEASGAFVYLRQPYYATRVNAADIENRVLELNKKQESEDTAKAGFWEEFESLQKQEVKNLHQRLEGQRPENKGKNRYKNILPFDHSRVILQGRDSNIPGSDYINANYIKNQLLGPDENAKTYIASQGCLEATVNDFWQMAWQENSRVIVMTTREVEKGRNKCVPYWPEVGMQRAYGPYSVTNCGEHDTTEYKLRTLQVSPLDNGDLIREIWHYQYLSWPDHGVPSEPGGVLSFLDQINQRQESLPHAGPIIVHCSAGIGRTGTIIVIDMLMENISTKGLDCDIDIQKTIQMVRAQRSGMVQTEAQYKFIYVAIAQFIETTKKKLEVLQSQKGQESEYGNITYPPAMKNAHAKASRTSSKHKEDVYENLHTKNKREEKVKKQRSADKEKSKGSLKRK
Assay [4] concerns the target T3, PTPN6. Nature of the assay: DiFMUP phosphatase screen, single dose […] (% inhibition, hit threshold […]). The class given is biochemical. Particulars: read-out: % inhibition at 20 μM.

One may read the Km as the substrate concentration at which the rate is half of its maximum. By Ki is commonly meant the dissociation constant of the complex between target and ligand, obtained from inhibition or displacement. Low values mean tighter binding, high ones weaker binding. A word on the inhibition: it is the percentage by which the read-out fell short of the control.

Turning to `Cc1cc(=O)oc2c(F)c(OP(=O)(O)O)c(F)cc12` [6,8-difluoro-4-methylumbelliferyl phosphate], the Michaelis constant (Km) in assay [1] came out at 21.6 µM; in assay [2] it was 66.4 µM.

For `CCOC(=O)c1cc(O)c(O)c(O)c1` [compound 271, ethyl gallate], affinity in assay [3] was put at a Ki of 3.4 µM. Turning to `COc1ccc(-c2oc3c(CC=C(C)C)c(O[C@@H]4O[C@H](CO)[C@@H](O)[C@H](O)[C@H]4O)cc(O)c3c(=O)c2O)cc1` [compound 335, icariside I], the inhibition at 20 µM in assay [4] was above 60%. The same measure, in the same setting: the figure for `O=C1C=CC(=O)c2c(O)cccc21` [compound 362, juglone] is above 60%; for `C[C@@H]1O[C@@H](Oc2c(-c3cc(O)c(O)c(O)c3)oc3cc(O)cc(O)c3c2=O)[C@H](O)[C@H](O)[C@H]1O` [compound 429, myricetrin] it is above 60%. Still for that read-out and setting: with `CCCCCCCCCCCCCCCCC(C(=O)O)C(O)(CC(=O)O)C(=O)O` (stereo not shown) [compound 891, agaric acid] the figure was above 60%.
